Experimental data reported in patent US9587471B2, “Controlling bioavailability of nutrient additions in subsurface formations” (E I DU PONT DE NEMOURS AND COMPANY, priority 2008, dated 2017).
Where a name gives a salt, the structure may show the parent alone.

How the values were obtained:
[1] = system: Pseudomonas stutzeri strain LH4:15 (ATCC PTA-8823); test: Aerobic growth response (turbidity) to varying concentrations of industrial preservatives; format: cell-based;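 for growth (turbidity): single plus means slight turbidity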
Protocol: (§1) Typically cells were grown at a temperature in the range of about 25° C. to about 40° C. in an appropriate medium.
Pseudomonas stutzeri strain LH4:15 (ATCC PTA-8823) was grown as outlined in Example 1. Various preservatives commonly used in the food, cosmetic, and water treatment industries were tested for their inhibitory effect at various concentrations (Table 2). Growth was monitored visually and positive growth was indicated by moderate to heavy turbidity.

[2] = system: native anaerobic population in the injection water from the North Slope of Alaska; test: Growth and nitrate+nitrite consumption of native populations in injection water; format: cell-based
Protocol: (§2) Injection water was amended with sodium nitrate as electron acceptor plus a growth substrates. In addition 0.2% ethyl formate was added to the inhibited treatment. The injection water was incubated anaerobically at approximately 25° C. under an atmosphere of 80% nitrogen and 20% carbon dioxide, reflecting typical growth conditions in the North Slope oil well formations. Growth of the native populations, nitrate concentrations and ethyl formate concentrations were monitored over two weeks.

[3] = system: Pseudomonas stutzeri strain LH4:15 (ATCC PTA-8823); test: Anaerobic growth and survival: biocidal versus biostatic inhibition; format: cell-based; conditions: for change in Log cell number: day 0 vs day 7, anaerobic; for Final anaerobic vial OD: starting OD600 = 0.05
Protocol: In this invention, the anaerobic growth and survival was tested in 20 ml crimp-capped anaerobic vials, using a complete nutrient medium of the following composition: Na2HPO4.7H2O, 1.4 g/L, KH2PO4, 0.69 g/L, NH4Cl, 0.5 g/L, MgSO4.7H2O, 0.1/L g, SL-10 trace metals, 10 ml, NaCl, 7.5 g/L, NaHCO3, 7.2 g/L, sodium nitrate, 12 g/L, Na lactate, 7 g/L, yeast extract, 10 mg/L, pH 7.3-7.8.
The anaerobic growth and survival was tested as outlined above. […] Vials were inoculated using an overnight aerobic culture of Pseudomonas stutzeri strain LH4:15 (ATCC PTA-8823) in Luria Bertani medium (LB, Mediatech Inc., Herndon, Va.,) at a final OD600 of 0.05. Within 2 hours of inoculation, serial dilutions from each treatment vial were made into aerobic LB medium to determine the cell numbers at Day 0. After approximately 24 hours cell numbers were estimated by noting the highest positive dilution based on the presence or absence of turbidity in dilutions of 10^−1 to 10^−11 in the serial dilution plates. Cell numbers on Day 0 and Day 7 were measured to obtain a survival estimate during inhibitor exposure.

[4] = system: Pseudomonas stutzeri strain LH4:15, ATCC PTA-8823; test: Aerobic growth response (turbidity) to varying concentrations of potential microbial nutrients; format: cell-based; for growth response (turbidity): key: − = no turbidity; + = slight turbidity; ++ = moderate to heavy turbidity
Protocol: as §1
Additional potential microbial nutrients were added at various concentrations as outlined in Table 1. Growth was monitored visually with positive growth indicated by moderate to heavy turbidity.

[5] = Decline (hydrolysis) of ethyl formate in injection water; format: physicochemical; conditions: in about four days, anaerobic, approximately 25° C., 0.2% added
Protocol: The growth delay allows deeper penetration into the oil well formation and more widespread MEOR activation.
as §2

[6] = 50 g/L, 120 hours of incubation

SMILES: OCCOc1ccccc1 [2-phenoxy-ethan-1-ol]
- growth (turbidity) ([1]; 1 g/L): ++
- growth (turbidity) ([1]; 2 g/L): ++
- growth (turbidity) ([1]; 3 g/L): ++
- growth (turbidity) ([1]; 4 g/L): −

SMILES: Cc1cc(O)ccc1Cl [4-chloro-3-metyhl phenol]
- growth (turbidity) ([1]; 0.1 g/L): −
- growth (turbidity) ([1]; 0.5 g/L): −
- growth (turbidity) ([1]; 1 g/L): −

SMILES: O=S(=O)([O-])[O-].OC[P+](CO)(CO)CO.OC[P+](CO)(CO)CO [Bis(tetrakis(hydroxymethyl))phosphonium sulfate]
- growth (turbidity) ([1]; 0.1 g/L): ++
- growth (turbidity) ([1]; 0.2 g/L): ++
- growth (turbidity) ([1]; 0.3 g/L): −
- growth (turbidity) ([1]; 0.4 g/L): −

SMILES: CCOC=O [Ethyl formate]
- delay of maximum growth ([2]; 0.2% concentration): four
- effect on the maximum population in words ([2]; 0.2% concentration): longer maintenance of the maximum population
- mean nitrate+nitrite loss rate ([2]; 0.2% ethyl formate): 190 ppm/day
- consumption of electron acceptors nitrate+nitrite slower in the inhibited treatment ([2]; 0.2% ethyl formate vs no added ethyl formate): 31%
- change in Log cell number ([3]; 5 g/L): −2
- Final anaerobic vial OD ([3]; 5 g/L): 0.02
- change in Log cell number ([3]; 10 g/L): −6
- Final anaerobic vial OD ([3]; 10 g/L): 0.01
- change in Log cell number ([3]; 25 g/L): −6
- Final anaerobic vial OD ([3]; 25 g/L): 0.005
- change in Log cell number ([3]; 50 g/L): Dead
- Final anaerobic vial OD ([3]; 50 g/L): 0.05
- change in Log cell number ([3]; 80 g/L): Dead
- Final anaerobic vial OD ([3]; 80 g/L): 0.06
- Growth response (turbidity) ([4]; 0.1 g/L, 24 hours of incubation): ++
- Growth response (turbidity) ([4]; 0.1 g/L, 48 hours of incubation): ++
- Growth response (turbidity) ([4]; 0.1 g/L, 120 hours of incubation): ++
- Growth response (turbidity) ([4]; 0.5 g/L, 24 hours of incubation): ++
- Growth response (turbidity) ([4]; 0.5 g/L, 48 hours of incubation): ++
- Growth response (turbidity) ([4]; 0.5 g/L, 120 hours of incubation): ++
- Growth response (turbidity) ([4]; 1 g/L, 24 hours of incubation): ++
- Growth response (turbidity) ([4]; 1 g/L, 48 hours of incubation): ++
- Growth response (turbidity) ([4]; 1 g/L, 120 hours of incubation): ++
- Growth response (turbidity) ([4]; 5 g/L, 24 hours of incubation): +
- Growth response (turbidity) ([4]; 5 g/L, 48 hours of incubation): ++
- Growth response (turbidity) ([4]; 5 g/L, 120 hours of incubation): ++
- Growth response (turbidity) ([4]; 25 g/L, 24 hours of incubation): −
- Growth response (turbidity) ([4]; 25 g/L, 48 hours of incubation): −
- Growth response (turbidity) ([4]; 25 g/L, 120 hours of incubation): −
- Growth response (turbidity) ([4]; 50 g/L, 24 hours of incubation): −
- Growth response (turbidity) ([4]; 50 g/L, 48 hours of incubation): −
- Growth response (turbidity) [4, 6]: −
- decline of ethyl formate concentration [5]: 10 fold

SMILES: COC(=O)c1ccc(O)cc1 [Methylparaben]
- change in Log cell number ([3]; 0.5 g/L): 0
- Final anaerobic vial OD ([3]; 0.5 g/L): 0.09
- change in Log cell number ([3]; 0.6 g/L): 0
- Final anaerobic vial OD ([3]; 0.6 g/L): 0.05
- change in Log cell number ([3]; 0.8 g/L): 1
- Final anaerobic vial OD ([3]; 0.8 g/L): 0.05
- change in Log cell number ([3]; 1 g/L): −1
- Final anaerobic vial OD ([3]; 1 g/L): 0.04
- change in Log cell number ([3]; 2.5 g/L): −2
- Final anaerobic vial OD ([3]; 2.5 g/L): 0.01
- effectiveness of the inhibitor in words ([3]; judged by OD600 and cell killing, Table 3): showed this desirable property at the lowest efficacious concentrations
- growth (turbidity) ([1]; 0.01 g/L): ++
- growth (turbidity) ([1]; 0.05 g/L): ++
- growth (turbidity) ([1]; 0.1 g/L): ++
- growth (turbidity) ([1]; 0.5 g/L): +
- growth (turbidity) ([1]; 1 g/L): −
- growth (turbidity) ([1]; 2.5 g/L): −

SMILES: CCCCCCCCCCCCN(C)C [N,N,-dimethyldodecylamine]
- growth (turbidity) ([1]; 0.0001 g/L): ++
- growth (turbidity) ([1]; 0.001 g/L): ++
- growth (turbidity) ([1]; 0.005 g/L): ++
- growth (turbidity) ([1]; 0.01 g/L): ++
- growth (turbidity) ([1]; 0.1 g/L): −
- growth (turbidity) ([1]; 0.5 g/L): −
- growth (turbidity) ([1]; 1 g/L): −

SMILES: NC(N)=O [Urea]
- change in Log cell number ([3]; 20 g/L): −1
- Final anaerobic vial OD ([3]; 20 g/L): 0.2
- change in Log cell number ([3]; 30 g/L): −1
- Final anaerobic vial OD ([3]; 30 g/L): 0.13
- change in Log cell number ([3]; 50 g/L): −1
- Final anaerobic vial OD ([3]; 50 g/L): 0.03
- change in Log cell number ([3]; 100 g/L): −1
- Final anaerobic vial OD ([3]; 100 g/L): 0.02
- change in Log cell number ([3]; 200 g/L): Dead
- Final anaerobic vial OD ([3]; 200 g/L): 0.01
- change in Log cell number ([3]; 300 g/L): Dead
- Final anaerobic vial OD ([3]; 300 g/L): 0.01
- Growth response (turbidity) ([4]; 10 g/L, 24 hours of incubation): ++
- Growth response (turbidity) ([4]; 10 g/L, 48 hours of incubation): ++
- Growth response (turbidity) ([4]; 10 g/L, 120 hours of incubation): ++
- Growth response (turbidity) ([4]; 20 g/L, 24 hours of incubation): ++
- Growth response (turbidity) ([4]; 20 g/L, 48 hours of incubation): ++
- Growth response (turbidity) ([4]; 20 g/L, 120 hours of incubation): ++
- Growth response (turbidity) ([4]; 50 g/L, 24 hours of incubation): −
- Growth response (turbidity) ([4]; 50 g/L, 48 hours of incubation): −
- Growth response (turbidity) [4, 6]: −
- Growth response (turbidity) ([4]; 100 g/L, 24 hours of incubation): −
- Growth response (turbidity) ([4]; 100 g/L, 48 hours of incubation): −
- Growth response (turbidity) ([4]; 100 g/L, 120 hours of incubation): −
- Growth response (turbidity) ([4]; 200 g/L, 24 hours of incubation): −
- Growth response (turbidity) ([4]; 200 g/L, 48 hours of incubation): −
- Growth response (turbidity) ([4]; 200 g/L, 120 hours of incubation): −
- concentration at which microbial growth was inhibited ([4]; aerobic growth at 30° C.): ≥ 50 g/L

SMILES: Oc1ccccc1 [phenol]
- growth (turbidity) ([1]; 0.01 g/L): ++
- growth (turbidity) ([1]; 0.05 g/L): ++
- growth (turbidity) ([1]; 0.1 g/L): ++
- growth (turbidity) ([1]; 0.5 g/L): ++
- growth (turbidity) ([1]; 1 g/L): ++
- growth (turbidity) ([1]; 10 g/L): −
- growth (turbidity) ([1]; 50 g/L): −

SMILES: CN(C)C(=S)[S-].[Na+] [sodium dithiodimethyl carbamate]
- growth (turbidity) ([1]; 0.1 g/L): ++
- growth (turbidity) ([1]; 0.2 g/L): ++
- growth (turbidity) ([1]; 0.3 g/L): −
- growth (turbidity) ([1]; 0.5 g/L): −
- growth (turbidity) ([1]; 0.8 g/L): −
- growth (turbidity) ([1]; 1 g/L): −
- concentration that must be reached before inhibition of microbial growth ends ([1]; stated 'as illustrated in Example 2'): < 0.1 g/L
